# Experimental data: ChEMBL document CHEMBL3991601, “The target landscape of clinical kinase drugs” (Science, 2017)
# Activity calls are given as the source filed them.
# Key:
# [1] = molecular target: cAMP-dependent protein kinase type II-alpha regulatory subunit (Homo sapiens, UniProt P13861)
# [2] = molecular target: Mitotic checkpoint serine/threonine-protein kinase BUB1 (Homo sapiens, UniProt O43683)
# Actin-related protein 2 = Actin-related protein 2 (Homo sapiens, UniProt P61160)
# [3] = molecular target: Maternal embryonic leucine zipper kinase (Homo sapiens, UniProt Q14680)
# Maternal embryonic leucine zipper kinase, sequence (Q14680 whole entry): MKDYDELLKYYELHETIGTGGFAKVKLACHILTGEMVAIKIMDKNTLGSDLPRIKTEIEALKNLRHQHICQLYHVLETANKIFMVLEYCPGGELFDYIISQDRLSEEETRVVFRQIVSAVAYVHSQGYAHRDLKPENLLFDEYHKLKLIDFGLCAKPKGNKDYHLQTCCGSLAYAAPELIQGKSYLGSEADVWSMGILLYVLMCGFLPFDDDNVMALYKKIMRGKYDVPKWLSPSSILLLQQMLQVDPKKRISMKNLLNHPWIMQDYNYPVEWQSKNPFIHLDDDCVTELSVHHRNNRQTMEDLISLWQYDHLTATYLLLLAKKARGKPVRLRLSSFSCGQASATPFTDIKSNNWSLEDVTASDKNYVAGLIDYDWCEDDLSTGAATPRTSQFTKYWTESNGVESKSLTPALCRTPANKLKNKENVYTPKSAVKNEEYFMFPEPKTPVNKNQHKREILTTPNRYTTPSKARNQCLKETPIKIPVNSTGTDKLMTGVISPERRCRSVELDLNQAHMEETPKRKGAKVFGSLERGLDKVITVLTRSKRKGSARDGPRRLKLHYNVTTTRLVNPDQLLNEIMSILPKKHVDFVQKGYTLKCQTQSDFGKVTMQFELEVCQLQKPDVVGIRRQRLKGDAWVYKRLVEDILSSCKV
# [4] = molecular target: T1, Cysteine--tRNA ligase, cytoplasmic (Homo sapiens, UniProt P49589)
# T1 sequence (P49589 whole entry): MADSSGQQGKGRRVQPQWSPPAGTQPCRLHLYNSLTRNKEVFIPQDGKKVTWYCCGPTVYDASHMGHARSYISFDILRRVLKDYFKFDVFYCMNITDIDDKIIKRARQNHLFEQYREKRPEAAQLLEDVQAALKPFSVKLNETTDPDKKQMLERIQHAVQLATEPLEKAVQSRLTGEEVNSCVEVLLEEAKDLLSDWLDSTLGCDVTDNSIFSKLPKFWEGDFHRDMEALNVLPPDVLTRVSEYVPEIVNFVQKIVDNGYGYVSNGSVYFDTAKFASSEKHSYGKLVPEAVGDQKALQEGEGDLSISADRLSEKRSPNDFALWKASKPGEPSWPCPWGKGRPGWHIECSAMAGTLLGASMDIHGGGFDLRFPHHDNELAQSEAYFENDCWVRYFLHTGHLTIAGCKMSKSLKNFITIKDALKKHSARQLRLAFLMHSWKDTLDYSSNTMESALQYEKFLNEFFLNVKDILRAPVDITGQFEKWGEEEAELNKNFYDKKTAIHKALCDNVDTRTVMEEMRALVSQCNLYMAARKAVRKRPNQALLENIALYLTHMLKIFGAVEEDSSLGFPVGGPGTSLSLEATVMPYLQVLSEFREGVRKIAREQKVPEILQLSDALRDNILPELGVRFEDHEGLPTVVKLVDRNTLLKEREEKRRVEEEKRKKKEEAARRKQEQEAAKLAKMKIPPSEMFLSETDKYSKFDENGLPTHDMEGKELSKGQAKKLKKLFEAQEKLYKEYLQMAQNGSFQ
# [5] = molecular target: Non-receptor tyrosine-protein kinase TYK2 (Homo sapiens, UniProt P29597)
# Non-receptor tyrosine-protein kinase TYK2, sequence (P29597 whole entry): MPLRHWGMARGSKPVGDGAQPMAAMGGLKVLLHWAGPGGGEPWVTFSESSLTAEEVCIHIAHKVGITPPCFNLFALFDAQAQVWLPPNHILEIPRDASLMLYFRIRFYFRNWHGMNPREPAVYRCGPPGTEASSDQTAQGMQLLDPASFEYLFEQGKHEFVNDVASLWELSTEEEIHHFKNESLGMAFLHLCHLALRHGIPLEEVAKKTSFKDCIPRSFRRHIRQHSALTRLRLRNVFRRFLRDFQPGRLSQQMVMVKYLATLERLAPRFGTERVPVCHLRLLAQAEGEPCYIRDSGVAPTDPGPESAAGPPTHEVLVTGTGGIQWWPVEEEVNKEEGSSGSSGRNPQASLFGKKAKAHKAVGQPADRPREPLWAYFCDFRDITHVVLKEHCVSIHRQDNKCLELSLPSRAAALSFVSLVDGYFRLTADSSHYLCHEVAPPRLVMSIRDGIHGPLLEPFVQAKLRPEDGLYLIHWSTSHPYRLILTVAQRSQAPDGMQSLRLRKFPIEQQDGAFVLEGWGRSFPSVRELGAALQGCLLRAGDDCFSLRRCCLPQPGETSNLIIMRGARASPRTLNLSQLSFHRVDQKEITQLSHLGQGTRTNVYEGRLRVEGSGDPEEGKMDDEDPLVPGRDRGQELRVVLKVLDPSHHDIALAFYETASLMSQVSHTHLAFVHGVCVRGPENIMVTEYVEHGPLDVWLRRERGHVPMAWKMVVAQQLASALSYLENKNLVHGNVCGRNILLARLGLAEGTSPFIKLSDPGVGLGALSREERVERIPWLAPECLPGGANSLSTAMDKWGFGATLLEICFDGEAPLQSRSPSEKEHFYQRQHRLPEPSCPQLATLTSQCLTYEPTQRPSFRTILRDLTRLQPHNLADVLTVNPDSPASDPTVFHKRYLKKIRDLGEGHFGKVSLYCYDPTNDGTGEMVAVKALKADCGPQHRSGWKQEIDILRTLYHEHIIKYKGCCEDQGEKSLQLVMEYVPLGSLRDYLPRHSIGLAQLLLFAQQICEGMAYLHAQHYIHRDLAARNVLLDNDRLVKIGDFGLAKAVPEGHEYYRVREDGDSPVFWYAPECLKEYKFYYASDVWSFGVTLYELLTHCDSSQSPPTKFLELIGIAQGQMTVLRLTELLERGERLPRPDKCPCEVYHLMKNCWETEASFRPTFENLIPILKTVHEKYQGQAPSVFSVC
# [6] = molecular target: T2, Exosome RNA helicase MTR4 (Homo sapiens, UniProt P42285)
# T2 sequence (P42285 whole entry): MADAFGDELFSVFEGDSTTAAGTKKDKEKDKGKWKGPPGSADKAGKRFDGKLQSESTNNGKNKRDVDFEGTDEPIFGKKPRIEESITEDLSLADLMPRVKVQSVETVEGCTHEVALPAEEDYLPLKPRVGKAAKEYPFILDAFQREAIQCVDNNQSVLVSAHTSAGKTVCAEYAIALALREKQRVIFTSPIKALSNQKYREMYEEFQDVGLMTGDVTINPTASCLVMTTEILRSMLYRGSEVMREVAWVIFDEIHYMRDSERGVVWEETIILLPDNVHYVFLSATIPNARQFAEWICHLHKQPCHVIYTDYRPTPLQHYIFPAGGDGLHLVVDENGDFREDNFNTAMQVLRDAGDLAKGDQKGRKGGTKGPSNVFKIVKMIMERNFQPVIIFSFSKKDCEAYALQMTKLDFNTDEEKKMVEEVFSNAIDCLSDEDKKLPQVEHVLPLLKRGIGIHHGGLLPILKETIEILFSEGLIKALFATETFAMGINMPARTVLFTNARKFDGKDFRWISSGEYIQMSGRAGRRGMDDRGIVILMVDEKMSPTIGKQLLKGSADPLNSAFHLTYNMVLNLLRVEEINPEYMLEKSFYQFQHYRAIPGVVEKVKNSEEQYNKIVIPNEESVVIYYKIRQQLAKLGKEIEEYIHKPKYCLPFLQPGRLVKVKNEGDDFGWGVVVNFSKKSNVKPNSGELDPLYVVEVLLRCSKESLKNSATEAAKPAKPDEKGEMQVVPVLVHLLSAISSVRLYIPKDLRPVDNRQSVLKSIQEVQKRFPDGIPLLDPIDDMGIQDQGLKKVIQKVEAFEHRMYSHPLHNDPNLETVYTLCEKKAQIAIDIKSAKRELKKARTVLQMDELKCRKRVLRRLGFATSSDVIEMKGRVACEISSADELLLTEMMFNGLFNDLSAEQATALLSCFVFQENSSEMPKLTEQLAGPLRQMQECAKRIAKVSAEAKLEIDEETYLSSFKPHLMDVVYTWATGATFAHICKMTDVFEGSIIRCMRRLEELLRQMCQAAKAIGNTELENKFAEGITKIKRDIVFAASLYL
# [7] = molecular target: AP2-associated protein kinase 1 (Homo sapiens, UniProt Q2M2I8)
# AP2-associated protein kinase 1, sequence (Q2M2I8 whole entry): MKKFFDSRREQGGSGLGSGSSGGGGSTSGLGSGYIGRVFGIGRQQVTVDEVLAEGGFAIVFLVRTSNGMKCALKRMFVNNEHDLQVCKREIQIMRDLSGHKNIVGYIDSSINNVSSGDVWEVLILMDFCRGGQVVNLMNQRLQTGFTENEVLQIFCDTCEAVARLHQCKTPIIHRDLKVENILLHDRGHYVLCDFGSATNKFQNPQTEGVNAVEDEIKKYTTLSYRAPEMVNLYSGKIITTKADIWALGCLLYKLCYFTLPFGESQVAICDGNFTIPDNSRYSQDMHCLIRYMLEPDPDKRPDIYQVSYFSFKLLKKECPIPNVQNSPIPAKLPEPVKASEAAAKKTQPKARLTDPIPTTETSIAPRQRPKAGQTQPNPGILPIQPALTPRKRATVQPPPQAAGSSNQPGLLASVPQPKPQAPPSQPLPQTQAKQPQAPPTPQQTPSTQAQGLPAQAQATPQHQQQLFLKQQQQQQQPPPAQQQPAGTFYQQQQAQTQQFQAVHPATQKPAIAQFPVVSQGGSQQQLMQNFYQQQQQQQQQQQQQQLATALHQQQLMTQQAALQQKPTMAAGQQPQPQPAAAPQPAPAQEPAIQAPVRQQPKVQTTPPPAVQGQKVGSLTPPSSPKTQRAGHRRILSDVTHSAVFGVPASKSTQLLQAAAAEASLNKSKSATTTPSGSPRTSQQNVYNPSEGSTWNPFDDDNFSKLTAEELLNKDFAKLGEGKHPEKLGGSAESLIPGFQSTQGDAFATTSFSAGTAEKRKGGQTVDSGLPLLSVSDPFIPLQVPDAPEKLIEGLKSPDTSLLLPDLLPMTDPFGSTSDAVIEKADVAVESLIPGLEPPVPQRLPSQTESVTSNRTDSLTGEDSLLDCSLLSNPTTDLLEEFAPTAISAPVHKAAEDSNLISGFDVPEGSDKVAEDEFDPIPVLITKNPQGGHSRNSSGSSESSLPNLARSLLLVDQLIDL
# [8] = molecular target: Elongation factor Tu, mitochondrial (Homo sapiens, UniProt P49411)
# [9] = molecular target: T3, Very long-chain specific acyl-CoA dehydrogenase, mitochondrial (Homo sapiens, UniProt P49748)
# T3 sequence (P49748 whole entry): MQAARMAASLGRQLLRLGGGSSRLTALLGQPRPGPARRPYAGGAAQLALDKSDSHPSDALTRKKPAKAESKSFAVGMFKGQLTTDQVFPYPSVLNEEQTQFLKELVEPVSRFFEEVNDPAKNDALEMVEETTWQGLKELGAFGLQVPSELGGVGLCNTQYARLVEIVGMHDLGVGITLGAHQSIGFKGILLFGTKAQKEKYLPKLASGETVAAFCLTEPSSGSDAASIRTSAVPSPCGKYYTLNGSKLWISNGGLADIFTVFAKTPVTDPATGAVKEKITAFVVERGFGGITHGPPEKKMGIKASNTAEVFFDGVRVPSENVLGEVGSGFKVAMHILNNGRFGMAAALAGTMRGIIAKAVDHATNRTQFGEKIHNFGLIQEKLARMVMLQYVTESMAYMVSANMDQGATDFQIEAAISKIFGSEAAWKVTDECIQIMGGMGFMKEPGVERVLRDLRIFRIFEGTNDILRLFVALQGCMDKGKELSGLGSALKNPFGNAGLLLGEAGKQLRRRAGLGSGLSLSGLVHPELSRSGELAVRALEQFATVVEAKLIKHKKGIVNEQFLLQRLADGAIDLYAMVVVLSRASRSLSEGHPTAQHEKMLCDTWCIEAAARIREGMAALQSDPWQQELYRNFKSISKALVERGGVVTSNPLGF
# Also: in the data inactive means no Kd found up to 30 µM.
# cAMP-dependent protein kinase type II-alpha regulatory subunit, sequence (P13861 whole entry): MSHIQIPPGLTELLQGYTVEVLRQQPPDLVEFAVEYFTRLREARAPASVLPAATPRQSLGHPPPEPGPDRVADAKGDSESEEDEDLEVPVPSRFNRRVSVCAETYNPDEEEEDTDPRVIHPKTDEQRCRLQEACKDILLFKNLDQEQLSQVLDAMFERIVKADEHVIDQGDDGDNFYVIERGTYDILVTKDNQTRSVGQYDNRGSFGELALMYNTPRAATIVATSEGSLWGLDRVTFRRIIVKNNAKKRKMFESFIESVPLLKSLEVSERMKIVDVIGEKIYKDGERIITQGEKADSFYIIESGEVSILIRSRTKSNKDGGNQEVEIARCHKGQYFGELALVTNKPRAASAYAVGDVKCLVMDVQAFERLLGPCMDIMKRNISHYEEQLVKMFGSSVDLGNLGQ
# Mitotic checkpoint serine/threonine-protein kinase BUB1, sequence (O43683 whole entry): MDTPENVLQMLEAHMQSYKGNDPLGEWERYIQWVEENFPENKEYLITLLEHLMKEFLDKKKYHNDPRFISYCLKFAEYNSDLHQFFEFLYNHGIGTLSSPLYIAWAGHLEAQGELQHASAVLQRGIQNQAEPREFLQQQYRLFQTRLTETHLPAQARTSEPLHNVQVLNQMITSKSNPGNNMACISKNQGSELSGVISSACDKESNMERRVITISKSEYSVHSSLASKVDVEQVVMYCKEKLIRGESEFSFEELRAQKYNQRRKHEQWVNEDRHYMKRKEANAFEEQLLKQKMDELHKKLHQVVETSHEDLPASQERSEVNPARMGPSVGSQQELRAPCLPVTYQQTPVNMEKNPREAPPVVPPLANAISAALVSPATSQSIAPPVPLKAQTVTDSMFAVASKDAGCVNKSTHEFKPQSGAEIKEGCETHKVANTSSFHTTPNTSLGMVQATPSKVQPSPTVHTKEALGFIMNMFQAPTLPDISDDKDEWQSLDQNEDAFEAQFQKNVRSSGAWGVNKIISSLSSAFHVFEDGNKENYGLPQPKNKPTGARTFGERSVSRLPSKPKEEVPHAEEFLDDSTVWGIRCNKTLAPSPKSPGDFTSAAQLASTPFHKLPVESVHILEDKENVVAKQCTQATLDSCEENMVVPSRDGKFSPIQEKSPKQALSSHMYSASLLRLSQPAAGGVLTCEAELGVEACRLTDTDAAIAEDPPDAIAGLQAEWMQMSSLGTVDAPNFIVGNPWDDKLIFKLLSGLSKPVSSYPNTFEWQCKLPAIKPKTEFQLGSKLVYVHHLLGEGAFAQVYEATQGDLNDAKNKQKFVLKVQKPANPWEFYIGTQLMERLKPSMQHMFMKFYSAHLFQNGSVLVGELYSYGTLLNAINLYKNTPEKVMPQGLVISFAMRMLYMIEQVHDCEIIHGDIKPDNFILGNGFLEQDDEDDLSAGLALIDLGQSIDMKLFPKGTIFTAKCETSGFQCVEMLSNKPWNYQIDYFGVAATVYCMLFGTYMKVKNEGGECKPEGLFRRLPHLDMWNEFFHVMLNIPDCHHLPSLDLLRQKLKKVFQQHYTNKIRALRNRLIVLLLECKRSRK
Kd [1],Kd [2],Kd (Actin-related protein 2),Kd [3],Kd [4],Kd [5],Kd [6],Kd [7],Kd [8],Kd [9],Structure (SMILES)
> 30 µM (inactive),> 30 µM (inactive),> 30 µM (inactive),> 30 µM (inactive),> 30 µM (inactive),> 30 µM (inactive),> 30 µM (inactive),> 30 µM (inactive),> 30 µM (inactive),> 30 µM (inactive),O=C(O)[C@]1(Cc2cccc(Nc3nccs3)n2)CC[C@@H](Oc2cccc(Cl)c2F)CC1 [MK-5108]
> 30 µM (inactive),> 30 µM (inactive),> 30 µM (inactive),> 30 µM (inactive),> 30 µM (inactive),> 30 µM (inactive),> 30 µM (inactive),> 30 µM (inactive),> 30 µM (inactive),> 30 µM (inactive),CC(=O)Nc1cccc(-n2c(=O)n(C3CC3)c(=O)c3c(Nc4ccc(I)cc4F)n(C)c(=O)c(C)c32)c1 [TRAMETINIB]
> 30 µM (inactive),> 30 µM (inactive),> 30 µM (inactive),> 30 µM (inactive),> 30 µM (inactive),> 30 µM (inactive),> 30 µM (inactive),> 30 µM (inactive),> 30 µM (inactive),> 30 µM (inactive),CO[C@H]1C[C@@H]2CC[C@@H](C)[C@@](O)(O2)C(=O)C(=O)N2CCCC[C@H]2C(=O)O[C@H]([C@H](C)C[C@@H]2CC[C@@H](OCCO)[C@H](OC)C2)CC(=O)[C@H](C)/C=C(\C)[C@@H](O)[C@@H](OC)C(=O)[C@H](C)C[C@H](C)/C=C/C=C/C=C/1C [EVEROLIMUS]
> 30 µM (inactive),> 30 µM (inactive),> 30 µM (inactive),> 30 µM (inactive),> 30 µM (inactive),> 30 µM (inactive),> 30 µM (inactive),> 30 µM (inactive),> 30 µM (inactive),> 30 µM (inactive),CN1N=C(N)c2cn([C@@H]3O[C@H](COP(=O)(O)O)[C@@H](O)[C@H]3O)c3ncnc1c23 [TRICIRIBINE PHOSPHATE]
> 30 µM (inactive),> 30 µM (inactive),> 30 µM (inactive),> 30 µM (inactive),> 30 µM (inactive),> 30 µM (inactive),> 30 µM (inactive),> 30 µM (inactive),> 30 µM (inactive),> 30 µM (inactive),OCCn1cc(-c2cnc3nnn(Cc4ccc5ncccc5c4)c3n2)cn1 [PF-04217903]
> 30 µM (inactive),> 30 µM (inactive),> 30 µM (inactive),> 30 µM (inactive),> 30 µM (inactive),> 30 µM (inactive),> 30 µM (inactive),> 30 µM (inactive),> 30 µM (inactive),> 30 µM (inactive),O=c1sn(-c2cccc3ccccc23)c(=O)n1Cc1ccccc1 [TIDEGLUSIB]
> 30 µM (inactive),> 30 µM (inactive),> 30 µM (inactive),> 30 µM (inactive),> 30 µM (inactive),> 30 µM (inactive),> 30 µM (inactive),> 30 µM (inactive),> 30 µM (inactive),> 30 µM (inactive),CCc1cnn2c(NCc3ccc[n+]([O-])c3)cc(N3CCCC[C@H]3CCO)nc12 [DINACICLIB]
> 30 µM (inactive),> 30 µM (inactive),> 30 µM (inactive),> 30 µM (inactive),> 30 µM (inactive),> 30 µM (inactive),> 30 µM (inactive),> 30 µM (inactive),> 30 µM (inactive),> 30 µM (inactive),CC(C)Nc1cc(-c2c[nH]c(C(=O)N[C@H](CO)c3cccc(Cl)c3)c2)c(Cl)cn1 [ULIXERTINIB]
> 30 µM (inactive),> 30 µM (inactive),0.004 µM,> 30 µM (inactive),> 30 µM (inactive),> 30 µM (inactive),> 30 µM (inactive),> 30 µM (inactive),> 30 µM (inactive),> 30 µM (inactive),C[C@@H]1CN(Cc2ccc(F)cc2)[C@@H](C)CN1C(=O)c1cc2c(C(=O)C(=O)N(C)C)cn(C)c2cc1Cl [TALMAPIMOD]
> 30 µM (inactive),> 30 µM (inactive),> 30 µM (inactive),> 30 µM (inactive),> 30 µM (inactive),> 30 µM (inactive),> 30 µM (inactive),> 30 µM (inactive),> 30 µM (inactive),> 30 µM (inactive),CNC(=O)CN1CCC(Oc2cc3c(Nc4cccc(Cl)c4F)ncnc3cc2OC)CC1 [SAPITINIB]
> 30 µM (inactive),> 30 µM (inactive),> 30 µM (inactive),> 30 µM (inactive),> 30 µM (inactive),> 30 µM (inactive),> 30 µM (inactive),> 30 µM (inactive),> 30 µM (inactive),> 30 µM (inactive),COc1cc2nccc(Oc3ccc(NC(=O)NC4CC4)c(Cl)c3)c2cc1C(N)=O [LENVATINIB]
> 30 µM (inactive),> 30 µM (inactive),> 30 µM (inactive),> 30 µM (inactive),> 30 µM (inactive),> 30 µM (inactive),> 30 µM (inactive),> 30 µM (inactive),> 30 µM (inactive),> 30 µM (inactive),N[C@@H]1CCCN(c2c(/C=C3\SC(=O)NC3=O)cccc2-c2ccccc2)C1

Structure (SMILES),Kd [1],Kd [2],Kd (Actin-related protein 2),Kd [3],Kd [4],Kd [5],Kd [6],Kd [7],Kd [8],Kd [9]
CN1CC[C@@H](c2c(O)cc(O)c3c(=O)cc(-c4ccccc4Cl)oc23)[C@@H]1CO,> 30 µM (inactive),> 30 µM (inactive),> 30 µM (inactive),> 30 µM (inactive),> 30 µM (inactive),> 30 µM (inactive),> 30 µM (inactive),> 30 µM (inactive),> 30 µM (inactive),> 30 µM (inactive)
